Test results taken from publication PMC11395333, “The Bifunctional Dimer Caffeine-Indan Attenuates α-Synuclein Misfolding, Neurodegeneration and Behavioral Deficits after Chronic Stimulation of Adenosine A1 Receptors” (International Journal of Molecular Sciences, 2024).

Columns and labels:
male Sprague-Dawley rats [1] = assay: Forced swim test after 7-day chronic i.p. CPA injection; format: in vivo, rat
From the text: All animals were housed and treated humanely following the guidelines from the following governing bodies: National Research Council (US) Committee for the Update of the Guide for the Care and Use of Laboratory Animals (Washington DC, USA, 2011); Canadian Council on Animal Care (CCAC); and the University of Saskatchewan Animal Research Ethics Board (AREB), which approved our Animal Use Protocol (#20070090 and #20170079). The animals were housed in cages of two, with access to food pellets and water ad libitum. The four treatments of the Sprague-Dawley rats consisted of the following: 1. Control (0.1% DMSO in 0.9% saline); 2. CPA; 3. […] Drugs were dissolved at 3 mg/mL in DMSO, and each drug was administered to the animals by daily i.p. injections (3 mg/kg or 5 mg/kg body weight) for 7 consecutive days. […] Then, on days 8 and 9 following the final injections, the animals were subjected to several behavioral tests. The forced swim test is used to assess depressive behavior such as despair and learned helplessness. The test is also used to assess the vigor and the ability of the animal to keep its head above the water in which the animals swim. In addition, the first and last three minutes of the test were manually scored for the ability of the rat to swim with all its four limbs. […] In addition, the ability of the animal to keep its head above water was scored. […] The forced swim test apparatus was a plexiglass cuboid measuring 30 cm in length, 30 cm in width and 60 cm in depth. The tank was then filled two-thirds with lukewarm water not exceeding 25 °C. Afterwards, the animal was left in the cylinder for 10 min during which its time spent immobile as well as its ability to swim and keep its head above water was analyzed. This trial was then used to calculate the percentage of time the animals spent immobile, as well as the vigor and success with which the animal swam. A video camera was used to record the animal movement in this test. The forced swim test was conducted the following day (day nine), giving the animals a sufficient resting period from the Y-maze and open field tests. Each experiment was repeated at least fifteen times per treatment, and the average of each treatment is presented in the bar graphs as average means ± SEM.

[2] = test system: one- and two-copied α-Syn-Green Fluorescent Protein (GFP) yeast strain; set-up: method as in PMID 27673434; details: cited from earlier work
male Sprague-Dawley rats [3] = assay: Open field test after 7-day chronic i.p. CPA injection; format: in vivo, rat
From the text: All animals were housed and treated humanely following the guidelines from the following governing bodies: National Research Council (US) Committee for the Update of the Guide for the Care and Use of Laboratory Animals (Washington DC, USA, 2011); Canadian Council on Animal Care (CCAC); and the University of Saskatchewan Animal Research Ethics Board (AREB), which approved our Animal Use Protocol (#20070090 and #20170079). The animals were housed in cages of two, with access to food pellets and water ad libitum. The four treatments of the Sprague-Dawley rats consisted of the following: 1. Control (0.1% DMSO in 0.9% saline); 2. CPA; 3. […] Drugs were dissolved at 3 mg/mL in DMSO, and each drug was administered to the animals by daily i.p. injections (3 mg/kg or 5 mg/kg body weight) for 7 consecutive days. […] Then, on days 8 and 9 following the final injections, the animals were subjected to several behavioral tests. The open field is a general locomotor test that detects anxiety and willingness to explore. The test is conducted in a white open cube measuring 50 cm in length, 50 cm in width and 35 cm in depth. The bottom field is gridded in 4x4 squares at 12.5 cm, with a center square in the middle of the field. The animal is placed in the center square and is free to explore the entirety of the field for 15 min. […] This trial is then used to calculate the percentage of time the animals spent in the center zone (red square) and the total fecal boli count. A video camera was used to record the animal movement in this test. The open field test was conducted after a 1 h resting period from the time the Y-maze second trial was completed. Each experiment was repeated at least ten times per treatment and the average of each treatment is presented in the bar graphs as average means ± SEM.

α-Syn = test system: α-Syn; set-up: method as in PMID 27673434; details: isothermal titration calorimetry; cited from earlier work
[4] = test system: SN pars compacta and hippocampal CA1 neurons; assay: Fluoro-Jade C staining of brain slices (neurodegeneration); format: in vivo, rat
From the text: All animals were housed and treated humanely following the guidelines from the following governing bodies: National Research Council (US) Committee for the Update of the Guide for the Care and Use of Laboratory Animals (Washington DC, USA, 2011); Canadian Council on Animal Care (CCAC); and the University of Saskatchewan Animal Research Ethics Board (AREB), which approved our Animal Use Protocol (#20070090 and #20170079). The animals were housed in cages of two, with access to food pellets and water ad libitum. The four treatments of the Sprague-Dawley rats consisted of the following: 1. Control (0.1% DMSO in 0.9% saline); 2. CPA; 3. […] Drugs were dissolved at 3 mg/mL in DMSO, and each drug was administered to the animals by daily i.p. injections (3 mg/kg or 5 mg/kg body weight) for 7 consecutive days. […] Then, on days 8 and 9 following the final injections, the animals were subjected to several behavioral tests. Fluro-Jade C (FJC) is a fluorescent marker for neurodegeneration (Millipore-Sigma, Oakville, ON, Canada; Cat# AG325). […] Initially, the microscope slides were immersed in 1% NaOH/80% ethanol for 5 min followed by 2 min immersion in 70% ethanol. The slides were then rinsed for 2 min with ultra-pure water. The microscope slides were further immersed in 0.06% KMnO4 for 10 min, followed by an additional rinse for 2 min with ultra-pure water. The slides were then stained with 0.004% FJC in 0.1% acetic acid for 20 min with gentle shaking on an orbital shaker. Lastly, the slides were rinsed three times in ultra-pure water for 1 min each, making sure to remove all the excess water after each rinse. The slides were then rinsed in xylene and allowed to dry overnight at 4 °C. Then they were treated with Prolong Gold Antifade Reagent from Invitrogen (Thermo Fisher Scientific, Waltham, MA, USA), and respective images were taken using a Zeiss LSM700 confocal microscope (Carl Zeiss Group, Canada) and analyzed with ImageJ (Public Domain). FJC fluorescence was obtained by exciting the dye with a 488 nm laser.

[5] = 3 or 5 mg/kg i.p. with 3 mg/kg CPA, 7 days
[6] = CPA 3 mg/kg i.p. daily for 7 days, alone

Compound	Forced swim test, vigor and success scores (male Sprague-Dawley rats [1]; 5 mg/kg i.p. with 3 mg/kg CPA, 7 days)	Forced swim test, immobility time (male Sprague-Dawley rats [1]; [5])	Forced swim test, motor deficits (male Sprague-Dawley rats [1]; [5])	Rescue from α-Syn-induced cell death ([2]; galactose promoter)	Prevention of large α-Syn foci ([2]; one- and two-copied α-Syn-GFP yeast)	Open field, fecal boli count (male Sprague-Dawley rats [3]; 3 and 5 mg/kg i.p. with 3 mg/kg CPA, 7 days)	Open field, exploratory behavior and anxiety (male Sprague-Dawley rats [3]; co-administered with 3 mg/kg CPA, 7 days)	Binding constant with α-Syn (α-Syn) [M⁻¹]	Number of binding sites with α-Syn (α-Syn)	FJC staining in SNc ([4]; 3 mg/kg and 5 mg/kg + CPA)	FJC, neurodegeneration in CA1 region of the hippocampus ([4]; 3 mg/kg or 5 mg/kg with CPA)	Forced swim test, motor deficits (male Sprague-Dawley rats [1]; [6])	Open field, percentage of time spent in the center square (male Sprague-Dawley rats [3]; [6])	FJC fluorescence in SNc [4, 6]	FJC, degenerating neurons in CA1 region of the hippocampus [4, 6]
Cn1c(=O)c2c(nc(CCCCCCNC3CCc4ccccc43)n2C)n(C)c1=O (stereo not drawn) [C8–6–I]	significantly improved the ability to purposely swim and use all limbs, as well as the ability to keep their head above water	spent significantly less time being immobile compared to the CPA-treated rats	produced no significant motor deficits	successful in rescuing the one- and two-copied α-Syn-Green Fluorescent Protein (GFP) yeast strain from α-Syn-induced cell death	effective in preventing large α-Syn foci	significantly decreased the fecal boli count	improved the exploratory behavior and reduced the anxiety caused by CPA	53000	one binding site	did not significantly increase FJC staining compared to the vehicle control slices	prevented neurodegeneration in hippocampal slices	–	–	–	–
OC[C@H]1O[C@@H](n2cnc3c(NC4CCCC4)ncnc32)[C@H](O)[C@@H]1O [CPA, N^6-Cyclopentyladenosine, reference compound]	–	–	–	–	–	–	–	–	–	–	–	induced an increase in motor deficits	significantly lower percentage of time spent in the center square	increased the levels of FJC fluorescence compared to the control	much higher levels of degenerating CA1 pyramidal neurons compared to the control
